According to patent US20130065868A1, “ANXIOYTIC MARCGRAVIACEAE COMPOSITIONS CONTAINING BETULINIC ACID, BETULINIC ACID DERIVATIVES, AND METHODS” (UNIVERSITY OF OTTAWA, priority 2002, published 2013):

What was measured:
[1] = Solubility; format: physicochemical; conditions: in water and in methanol
[2] = Elevated plus maze, betulinic acid vs structurally related compounds (Example 11); format: in vivo
Text: This example compares the anxiolytic activity of betulinic acid and some other structurally related compounds. Results are illustrated in FIG. 7.

[3] = test system: Sprague Dawley rats; test: Locomotor activity after chronic administration; format: in vivo, rat; conditions: chronic 0.5 mg/kg daily orally, one night 5 p.m. to 7 a.m. (FIG. 11)
Method: Test animals and drug treatments were as in Example 14. Locomotor activity was recorded for one night (5 p.m. to 7 a.m. the following morning) in the control as well as in the betulinic acid and methyl ester of betulinic acid exposed groups. Locomotor activity was monitored using infrared sensors located on the roof of the animals' cage. Eight independent sensors monitored activity of animals according to the number of quadrants traversed.

[4] = Weight gain over chronic treatment; format: in vivo, rat; conditions: rats, chronic 0.5 mg/kg daily orally (FIG. 12)
[5] = test system: Sprague-Dawley rats; test: Rat social interaction paradigm; format: in vivo; conditions: 0.5 mg/kg i.p.
Text: The rat social interaction paradigm takes advantage of rats' natural behaviour in novel situations. The more ‘anxious’ the animals are, the less likely they are engage in social interaction with the cohort. Anxiolytic drugs typically increase the amount of time rodents spend socially interacting with one another. (Pile, S. E., (1980). The use of social interaction as a method for detecting anxiolytic activity of chlor-diazepoxide-like drugs. In Current Protocols in Neuroscience (pp. 8.3.3-8.3.4), John-Wiley & Sons).
The social-interaction (SI) test arena constituted of a 60×60 cm white Plexiglas floor, enclosed by 35-cm high walls of the same material. The arena was surrounded by black curtain, and a closed circuit camera was positioned above the setup, to feed live video signals to the experimenter seated in a separate room, for behavioral assessment and recording.
Each rat was placed alone in the SI box for 7.5 min daily for 2 days, in order to familiarize the animals with the test environment. Animals were paired according to their body weights (less than 10 g difference) and each pair was randomly assigned to one of the treatment groups. Rats received either betulinic acid 0.5 mg/kg i.p., betulinic acid methyl ester (methyl betulinate) 0.5 mg/kg i.p., or peanut oil only (control). Drugs were injected (i.p.) 60 min prior to testing. Tests were carried out at three intervals, 1 h, 2.5 h and 4 h after injection. Each pair was tested at the 1-h interval, then new pairs from within the same drug group were formed for the 2.5-h interval and then again at the 4-h interval (new pairs were formed for each test interval, to control for the potential confounding effect partner familiarity). […] The behaviors scored included the amount of time the pairs spent interacting together (sniffing, grooming and chasing) as well as the number of times the animals initiated contact.

SMILES: C=C(C)C1CCC2(C(=O)[O-])CCC3(C)C(CCC4C5(C)CCC(O)C(C)(C)C5CCC43C)C12.[Na+] (centres unmarked) [sodium salt of betulinic acid]
- solubility relative to pure betulinic acid [1]: greater in water and in methanol than pure betulinic acid

SMILES: CC1(C)CC[C@]2(C(=O)O)CC[C@]3(C)C(=CC[C@@H]4[C@@]5(C)CC[C@H](O)C(C)(C)[C@@H]5CC[C@]43C)[C@@H]2C1 [oleanolic acid]
- anxiolytic activity on the elevated plus maze paradigm ([2]; 0.5 mg/kg): neither beta-amyrin (5 mg/kg) nor oleanolic acid (0.5 mg/kg), two compounds structurally related to betulinic acid, displayed any anxiolytic activity

SMILES: C=C(C)[C@@H]1CC[C@]2(C(=O)OC)CC[C@]3(C)[C@H](CC[C@@H]4[C@@]5(C)CC[C@H](O)C(C)(C)[C@@H]5CC[C@]43C)[C@@H]12 [betulinic acid methyl ester, Methyl betulinate]
- adverse effect on locomotor activity or pattern [3]: neither betulinic acid nor the methyl ester of betulinic acid had an adverse effect on locomotor activity or pattern
- effect of chronic drug treatment on weight gain [4]: did not seem to affect weight gain in a significant manner
- frequency of initiated contact [5]: not significant
- amount of social interaction (interaction time) compared to the control group ([5]; data collapsed across 1 h, 2.5 h and 4 h (FIG. 8)): significantly increased the amount of social interaction
- increase of social interaction compared to betulinic acid ([5]; p<0.05): significantly more effective at increasing social interaction than betulinic acid

SMILES: CC1(C)CC[C@]2(C)CC[C@]3(C)C(=CC[C@@H]4[C@@]5(C)CC[C@H](O)C(C)(C)[C@@H]5CC[C@]43C)[C@@H]2C1 [beta-amyrin]
- anxiolytic activity on the elevated plus maze paradigm ([2]; 5 mg/kg (FIG. 7)): neither beta-amyrin (5 mg/kg) nor oleanolic acid (0.5 mg/kg), two compounds structurally related to betulinic acid, displayed any anxiolytic activity
